Measurements taken from patent US11584714B2 (priority 2018, dated 2023).
Counter-ions that a name gives are not always drawn. Like-named read-outs stand apart in the source and are kept apart here.

What was measured:
Format in all cases: biochemical
[1] = tested on: Lectin Pathway; assay: Lectin pathway activation assay in human serum (mannan-coated ELISA, C3c detection); conditions: 1% human serum
[2] = biological target: mMASP-2 (Mus musculus (Mouse), UniProt Q91WP0); assay: Enzymatic inhibition of mMASP-2; conditions: read-out: mMASP-2 Ki
Sequence of mMASP-2 (Q91WP0 20-685): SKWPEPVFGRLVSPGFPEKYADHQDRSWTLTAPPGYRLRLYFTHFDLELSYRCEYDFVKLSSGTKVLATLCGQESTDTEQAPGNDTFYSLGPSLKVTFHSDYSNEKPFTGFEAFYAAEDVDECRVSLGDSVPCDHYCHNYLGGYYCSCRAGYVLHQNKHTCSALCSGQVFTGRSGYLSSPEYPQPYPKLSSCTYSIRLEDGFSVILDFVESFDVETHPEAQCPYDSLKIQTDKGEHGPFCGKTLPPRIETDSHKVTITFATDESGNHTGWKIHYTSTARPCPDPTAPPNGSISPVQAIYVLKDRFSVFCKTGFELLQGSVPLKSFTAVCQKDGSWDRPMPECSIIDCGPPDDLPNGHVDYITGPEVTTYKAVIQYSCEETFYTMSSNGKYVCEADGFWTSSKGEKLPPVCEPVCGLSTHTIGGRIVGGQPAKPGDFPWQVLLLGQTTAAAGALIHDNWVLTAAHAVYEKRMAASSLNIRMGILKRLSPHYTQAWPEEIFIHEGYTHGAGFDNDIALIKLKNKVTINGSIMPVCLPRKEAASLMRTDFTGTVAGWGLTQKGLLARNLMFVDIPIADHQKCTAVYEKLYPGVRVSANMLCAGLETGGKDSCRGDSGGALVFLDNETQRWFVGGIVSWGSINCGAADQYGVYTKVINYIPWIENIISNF

[3] = biological target: MASP-2 (CCP1-CCP2-SP) (Homo sapiens (Human), UniProt O00187); assay: biochemical; conditions: for Ki: read-out: MASP-2 Ki
Sequence of MASP-2 (CCP1-CCP2-SP) (O00187 445-686): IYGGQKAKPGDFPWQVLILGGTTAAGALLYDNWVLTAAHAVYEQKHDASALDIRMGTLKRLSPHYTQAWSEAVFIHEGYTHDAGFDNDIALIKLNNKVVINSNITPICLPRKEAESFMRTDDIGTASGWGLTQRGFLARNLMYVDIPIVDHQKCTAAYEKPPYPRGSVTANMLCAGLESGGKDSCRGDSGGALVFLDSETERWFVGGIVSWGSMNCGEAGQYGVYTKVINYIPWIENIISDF

[4] = biological target: human α-thrombin (Homo sapiens (Human), UniProt P00734); assay: Enzymatic assay for thrombin (Boc-VPR-AMC substrate)
[5] = selectivity for MASP-2 inhibition versus thrombin

SMILES | IC50 [1] | Ki [2] | Ki [3] | MASP-2 vs. thrombin selectivity [3, 5] | Ki ([4]; Thrombin Ki (μM)) | Ki ([4]; read-out: Thrombin Ki) | MASP-2 vs. thrombin selectivity ([3]; MASP-2 inhibition versus thrombin)
Cc1nc(N)ccc1CNC(=O)[C@H](C)NC(=O)[C@H]1C[C@H](Cc2ccc(Cl)c(Br)c2)CN1 [compound 1451, (2R,4S)—N—((S)-1-(((6-Amino-2-methylpyridin-3-yl)methyl)amino)-1-oxopropan-2-yl)-4-(3-bromo-4-chlorobenzyl)pyrrolidine-2-carboxamide Di-trifluoroacetate salt] | 0.5 to 5 µM | < 0.5 µM | < 0.5 µM | **** (≥100-fold) | 10 to 25 µM |  | 
Cc1nc(N)ccc1CNC(=O)[C@H](C)NC(=O)[C@H]1C[C@H](Cc2ccc3nsnc3c2)CN1 [compound 1449, (2R,4S)—N—((S)-1-(((6-Amino-2-methylpyridin-3-yl)methyl)amino)-1-oxopropan-2-yl)-4-(benzo[c][1,2,5]thiadiazol-5-ylmethyl)pyrrolidine-2-carboxamide Di-trifluoroacetate salt] | 0.5 to 5 µM | < 0.5 µM | < 0.5 µM | **** (≥100-fold) | 2.5 to 10 µM |  | 
Cc1nc(N)ccc1CNC(=O)Cn1c(C)cnc(NCCc2ccccc2)c1=O [compound 1488] | 0.5 to 5 µM | 2.5 to 10 µM | < 0.5 µM | −− (<1.0-fold) |  | < 0.5 µM | 
C[C@H](NC(=O)[C@@H](CCc1ccccc1)NCCc1ccc(Cl)cc1)C(=O)NCc1ccc(C(=N)N)cc1 [compound 1339, (R)—N—((S)-1-((4-Carbamimidoylbenzyl)amino)-1-oxopropan-2-yl)-2-((4-chlorophenethyl)amino)-4-phenylbutanamide Di-trifluoroacetate salt] | < 0.05 µM | < 0.5 µM | < 0.5 µM | ** (≥5.0 to <25-fold) |  | < 0.5 µM | 
C[C@H](NC(=O)[C@H]1C[C@H](Cc2cccc3ccccc23)CN1)C(=O)NCc1cc(Cl)ccc1-n1cnnn1 [compound 1414, (2R,4S)—N—((S)-1-((5-Chloro-2-(1H-tetrazol-1-yl)benzyl)amino)-1-oxopropan-2-yl)-4-(naphthalen-1-ylmethyl)pyrrolidine-2-carboxamide Hydrochloride] | 0.05 to 0.5 µM | < 0.5 µM | < 0.5 µM | −− (<1.0-fold) |  | < 0.5 µM | 
Cc1nc(N)ccc1CNC(=O)[C@@H]1CCN1C(=O)[C@H]1C[C@H](Cc2ccc(Br)cc2)CN1 [compound 1438, (S)—N-((6-Amino-2-methylpyridin-3-yl)methyl)-1-((2R,4S)-4-(4-bromobenzyl)pyrrolidine-2-carbonyl)azetidine-2-carboxamide Di-trifluoroacetate salt] | 0.5 to 5 µM | 0.5 to 2.5 µM | < 0.5 µM | ** (≥5.0 to <25-fold) |  | < 0.5 µM | 
Cc1nc(N)ccc1CNC(=O)[C@H](C)NC(=O)[C@H]1CN(Cc2ccccc2)CCN1 [compound 1347, (R)—N—((S)-1-(((6-Amino-2-methylpyridin-3-yl)methyl)amino)-1-oxopropan-2-yl)-4-benzylpiperazine-2-carboxamide Dihydrochloride] | < 0.05 µM | < 0.5 µM | < 0.5 µM | *** (≥25 to <100-fold) | 0.5 to 2.5 µM |  | 
C[C@H](NC(=O)[C@H](N)CCc1ccccc1)C(=O)NCc1ccc2c(N)ncnc2c1 [compound 1060, (R)-2-Amino-N—((S)-1-(((4-aminoquinazolin-7-yl)methyl)amino)-1-oxopropan-2-yl)-4-phenylbutanamide Dihydrochloride] | > 50 µM | > 25 µM |  |  |  | > 25 µM | *** (25 to 100-fold)
Cc1cc(C)cc(C[C@@H]2CN[C@@H](C(=O)N[C@@H](C)C(=O)NCc3cc(Cl)ccc3-n3cnnn3)C2)c1 [compound 1416, (2R,4S)—N—((S)-1-((5-Chloro-2-(1H-tetrazol-1-yl)benzyl)amino)-1-oxopropan-2-yl)-4-(3,5-dimethylbenzyl)pyrrolidine-2-carboxamide Hydrochloride] | 0.05 to 0.5 µM | < 0.5 µM | < 0.5 µM | ** (≥5.0 to <25-fold) |  | < 0.5 µM | 
Cc1nc(N)ccc1CNC(=O)[C@H](C)NC(=O)[C@H]1C[C@H](Cc2ccccc2Br)CN1 [compound 1372, (2R,4S)—N—((S)-1-(((6-Amino-2-methylpyridin-3-yl)methyl)amino)-1-oxopropan-2-yl)-4-(2-bromobenzyl)pyrrolidine-2-carboxamide Di-trifluoroacetate salt] | 0.05 to 0.5 µM | < 0.5 µM | < 0.5 µM | ** (≥5.0 to <25-fold) |  | < 0.5 µM | 
Cc1nc(N)ccc1CNC(=O)[C@H](C)NC(=O)[C@H]1C[C@H](Cc2cc(Cl)cc(Cl)c2)CN1 [compound 1435, (2R,4S)—N—((S)-1-(((6-Amino-2-methylpyridin-3-yl)methyl)amino)-1-oxopropan-2-yl)-4-(3,5-dichlorobenzyl)pyrrolidine-2-carboxamide Dihydrochloride] | 0.5 to 5 µM | < 0.5 µM | < 0.5 µM | **** (≥100-fold) | 10 to 25 µM |  | 
Cc1nc(N)ccc1CNC(=O)[C@H](C)NC(=O)[C@H]1Cc2c([nH]c3ccccc23)CN1 [compound 1389, (R)—N—((S)-1-(((6-Amino-2-methylpyridin-3-yl)methyl)amino)-1-oxopropan-2-yl)-2,3,4,9-tetrahydro-1H-pyrido[3,4-b]indole-3-carboxamide Hydrochloride] | 0.5 to 5 µM | 2.5 to 10 µM | < 0.5 µM | **** (≥100-fold) |  | > 25 µM | 
Cc1nc(N)ccc1CNC(=O)[C@H](C)NC(=O)[C@H]1C[C@@H](c2ccccc2)CCN1C [compound 1441, (2R,4S)—N—((S)-1-(((6-Amino-2-methylpyridin-3-yl)methyl)amino)-1-oxopropan-2-yl)-1-methyl-4-phenylpiperidine-2-carboxamide] | 0.05 to 0.5 µM | < 0.5 µM | < 0.5 µM |  |  | > 25 µM | 
C[C@H](NC(=O)[C@H]1C[C@H](Cc2ccccc2)CN1)C(=O)NCc1cc(Cl)ccc1-n1cnnn1 [compound 1371, (2R,4S)-4-Benzyl-N-((S)-1-((5-chloro-2-(1H-tetrazol-1-yl)benzyl)amino)-1-oxopropan-2-yl)pyrrolidine-2-carboxamide Hydrochloride] | 0.05 to 0.5 µM | 0.5 to 2.5 µM | < 0.5 µM | −− (<1.0-fold) |  | < 0.5 µM | 
Cc1nc(N)ccc1CNC(=O)[C@H](C)NC(=O)[C@H]1C[C@H](Cc2ccc(Br)cc2)CN1 [compound 1350, (2R,4S)—N—((S)-1-(((6-Amino-2-methylpyridin-3-yl)methyl)amino)-1-oxopropan-2-yl)-4-(4-bromobenzyl)pyrrolidine-2-carboxamide Dihydrochloride] | 0.5 to 5 µM | < 0.5 µM | < 0.5 µM | **** (≥100-fold) | 2.5 to 10 µM |  | 
Cc1nc(N)ccc1CNC(=O)[C@H](C)NC(=O)[C@H]1C[C@H](Cc2ccc(Cl)s2)CN1 [compound 1454, (2R,4R)—N—((S)-1-(((6-Amino-2-methylpyridin-3-yl)methyl)amino)-1-oxopropan-2-yl)-4-((5-chlorothiophen-2-yl)methyl)pyrrolidine-2-carboxamide Dihydrochloride] | 0.5 to 5 µM | < 0.5 µM | < 0.5 µM | *** (≥25 to <100-fold) | 0.5 to 2.5 µM |  | 
Cc1nc(N)ccc1CNC(=O)[C@H](C)NC(=O)[C@H]1C[C@H](Cc2cccc3ccccc23)CN1 [compound 1324, (2R,4S)—N—((S)-1-(((6-Amino-2-methylpyridin-3-yl)methyl)amino)-1-oxopropan-2-yl)-4-(naphthalen-1-ylmethyl)pyrrolidine-2-carboxamide Di-trifluoroacetate salt] | 0.05 to 0.5 µM | < 0.5 µM | < 0.5 µM | *** (≥25 to <100-fold) | 0.5 to 2.5 µM |  | 
Cc1nc(N)ccc1CNC(=O)[C@H](C)NC(=O)[C@H]1C[C@H](Cc2ccc(Cl)cc2Cl)CN1 [compound 1443, (2R,4S)—N—((S)-1-(((6-Amino-2-methylpyridin-3-yl)methyl)amino)-1-oxopropan-2-yl)-4-(2,4-dichlorobenzyl)pyrrolidine-2-carboxamide Dihydrochloride] | 0.5 to 5 µM | < 0.5 µM | < 0.5 µM | *** (≥25 to <100-fold) | 0.5 to 2.5 µM |  | 
Cc1nc(N)ccc1CNC(=O)[C@H](C)NC(=O)[C@H]1C[C@H](Cc2cc(Cl)ccc2Cl)CN1 [compound 1444, (2R,4S)—N—((S)-1-(((6-Amino-2-methylpyridin-3-yl)methyl)amino)-1-oxopropan-2-yl)-4-(2,5-dichlorobenzyl)pyrrolidine-2-carboxamide Dihydrochloride] | 0.5 to 5 µM | < 0.5 µM | < 0.5 µM | ** (≥5.0 to <25-fold) |  | < 0.5 µM | 
Cc1nc(N)ccc1CNC(=O)[C@H](C)NC(=O)[C@H]1C[C@H](Cc2ccc(F)cc2)CN1 [compound 1447, (2R,4S)—N—((S)-1-(((6-Amino-2-methylpyridin-3-yl)methyl)amino)-1-oxopropan-2-yl)-4-(4-fluorobenzyl)pyrrolidine-2-carboxamide Di-trifluoroacetate salt] | 0.5 to 5 µM | < 0.5 µM | < 0.5 µM | **** (≥100-fold) | 2.5 to 10 µM |  | 
C[C@H](NC(=O)[C@H]1C[C@@H](c2ccccc2)CCN1)C(=O)NCc1cnc2[nH]cc(Cl)c2c1 [compound 1433, (2R,4S)—N—((S)-1-(((3-Chloro-1H-pyrrolo[2,3-b]pyridin-5-yl)methyl)amino)-1-oxopropan-2-yl)-4-phenylpiperidine-2-carboxamide] | 0.05 to 0.5 µM | < 0.5 µM | < 0.5 µM | **** (≥100-fold) | 0.5 to 2.5 µM |  | 
